Consider 1 substance from patent US7776324B2, “Cancer vaccine” (Malaysian Palm Oil Board (MPOB), priority 2006, dated 2010).

The subject of the assay is IFN-γ. The assay can be described thus: Serum IFN-γ levels following tocotrienol supplementation in mouse models. The format is in vivo.

In the case of tocotrienol, the “serum levels of interferon-gamma (IFN-γ)” value is recorded as “significantly increased”.
